Key:
Format in all cases: in vivo
[1] = test system: Blumeria graminis f.sp. hordei; test: Barley Powdery Mildew (ERYSGH) fungicidal activity; settings: 24 h, 1DP (1 Day Protectant), read-out: ERYSGH Disease Control
Protocol: Technical grades of materials were dissolved in acetone, which were then mixed with nine volumes of H2O containing 110 ppm Triton X-100. The fungicide solutions were applied onto wheat seedlings using an automated booth sprayer to run-off. All sprayed plants were allowed to air dry prior to further handling. All fungicides were evaluated using the aforementioned method for their activity vs. all target diseases, unless stated otherwise. Wheat leaf blotch and brown rust activity were also evaluated using track spray applications, in which case the fungicides were formulated as EC formulations, containing 0.1% Trycol 5941 in the spray solutions. Wheat plants (variety Yuma) were grown from seed in a greenhouse in 50% mineral soil/50% soil-less Metro mix until the first leaf was fully emerged, with 7-10 seedlings per pot. These plants were inoculated with an aqueous spore suspension of Zymoseptoria tritici either prior to or after fungicide treatments. After inoculation the plants were kept in 100% relative humidity (one day in a dark dew chamber followed by two to three days in a lighted dew chamber at 20° C.) to permit spores to germinate and infect the leaf. The plants were then transferred to a greenhouse set at 20° C. for disease to develop. When disease symptoms were fully expressed on the 1st leaves of untreated plants, infection levels were assessed on a scale of 0 to 100 percent disease severity. Percent disease control was calculated using the ratio of disease severity on treated plants relative to untreated plants. Example J: Evaluation of Fungicidal Activity: Barley Powdery Mildew (Blumeria graminis f.sp. hordei; Synonym: Erysiphe graminis f.sp. hordei; Bayer Code […]) Barley seedlings (variety Harrington) were propagated in soil-less Metro mix, with each pot having 8 to 12 plants, and used in the test when first leaf was fully emerged. Test plants were inoculated by dusting with infected stock plants 24 hr after fungicide treatments. After inoculation the plants were kept in a greenhouse set at 20° C. for disease to develop. Fungicide formulation, application and disease assessment on the sprayed leaves followed the procedures as described in the Example A.

Alternaria solani = test: Tomato Early Blight (ALTESO) fungicidal activity; settings: 24 h, 1DP (1 Day Protectant), read-out: ALTESO Disease Control
Protocol: Technical grades of materials were dissolved in acetone, which were then mixed with nine volumes of H2O containing 110 ppm Triton X-100. The fungicide solutions were applied onto wheat seedlings using an automated booth sprayer to run-off. All sprayed plants were allowed to air dry prior to further handling. All fungicides were evaluated using the aforementioned method for their activity vs. all target diseases, unless stated otherwise. Wheat leaf blotch and brown rust activity were also evaluated using track spray applications, in which case the fungicides were formulated as EC formulations, containing 0.1% Trycol 5941 in the spray solutions. Wheat plants (variety Yuma) were grown from seed in a greenhouse in 50% mineral soil/50% soil-less Metro mix until the first leaf was fully emerged, with 7-10 seedlings per pot. These plants were inoculated with an aqueous spore suspension of Zymoseptoria tritici either prior to or after fungicide treatments. After inoculation the plants were kept in 100% relative humidity (one day in a dark dew chamber followed by two to three days in a lighted dew chamber at 20° C.) to permit spores to germinate and infect the leaf. The plants were then transferred to a greenhouse set at 20° C. for disease to develop. When disease symptoms were fully expressed on the 1st leaves of untreated plants, infection levels were assessed on a scale of 0 to 100 percent disease severity. Percent disease control was calculated using the ratio of disease severity on treated plants relative to untreated plants. Example M: Evaluation of Fungicidal Activity: Tomato Early Blight (Alternaria solani; Bayer Code […]) Tomato plants (variety Outdoor Girl) were propagated in soil-less Metro mix, with each pot having one plant, and used when 12 to 14 days old. Test plants were inoculated with an aqueous spore suspension of Alternaria solani 24 hr after fungicide treatments. After inoculation the plants were kept in 100% relative humidity (one day in a dark dew chamber followed by two to three days in a lighted dew chamber at 20° C.) to permit spores to germinate and infect the leaf. The plants were then transferred to a growth room at 22° C. for disease to develop. Fungicide formulation, application and disease assessment on the sprayed leaves followed the procedures as described in the Example A.

[2] = test system: Glomerella lagenarium; Anamorph: Colletotrichum lagenarium; test: Cucumber Anthracnose (COLLLA) fungicidal activity; settings: Colletotrichum orbiculare, 24 h, 1DP (1 Day Protectant), read-out: COLLLA Disease Control
Protocol: Technical grades of materials were dissolved in acetone, which were then mixed with nine volumes of H2O containing 110 ppm Triton X-100. The fungicide solutions were applied onto wheat seedlings using an automated booth sprayer to run-off. All sprayed plants were allowed to air dry prior to further handling. All fungicides were evaluated using the aforementioned method for their activity vs. all target diseases, unless stated otherwise. Wheat leaf blotch and brown rust activity were also evaluated using track spray applications, in which case the fungicides were formulated as EC formulations, containing 0.1% Trycol 5941 in the spray solutions. Wheat plants (variety Yuma) were grown from seed in a greenhouse in 50% mineral soil/50% soil-less Metro mix until the first leaf was fully emerged, with 7-10 seedlings per pot. These plants were inoculated with an aqueous spore suspension of Zymoseptoria tritici either prior to or after fungicide treatments. After inoculation the plants were kept in 100% relative humidity (one day in a dark dew chamber followed by two to three days in a lighted dew chamber at 20° C.) to permit spores to germinate and infect the leaf. The plants were then transferred to a greenhouse set at 20° C. for disease to develop. When disease symptoms were fully expressed on the 1st leaves of untreated plants, infection levels were assessed on a scale of 0 to 100 percent disease severity. Percent disease control was calculated using the ratio of disease severity on treated plants relative to untreated plants. Example N: Evaluation of Fungicidal Activity: Cucumber Anthracnose (Glomerella lagenarium; Anamorph: Colletotrichum lagenarium; Bayer Code COLLLA) Cucumber seedlings (variety Bush Pickle) were propagated in soil-less Metro mix, with each pot having one plant, and used in the test when 12 to 14 days old. Test plants were inoculated with an aqueous spore suspension of Colletotrichum lagenarium 24 hr after fungicide treatments. After inoculation the plants were kept in a dew room at 22° C. with 100% relative humidity for 48 hr to permit spores to germinate and infect the leaf. The plants were then transferred to a growth room set at 22° C. for disease to develop. Fungicide formulation, application and disease assessment on the sprayed leaves followed the procedures as described in the Example A.

Row | Structure (SMILES) | pest or weed control at 100 ppm [1] | pest or weed control at 100 ppm (Alternaria solani) | pest or weed control at 100 ppm [2]
1 | CCCCO[C@H]1CCOC[C@H](NC(=O)c2nccc(OC)c2OCOC(C)=O)C(=O)O[C@@H](C)[C@@H]1OCc1ccccc1 [Compound 2] | < 80% | < 80% | > 80%
2 | CCCCO[C@H]1CCOC[C@H](NC(=O)c2nccc(OC)c2OCOC(C)=O)C(=O)O[C@@H](C)[C@@H]1OC(=O)C(C)C [Compound 3] | < 80% | > 80% | < 80%
3 | CCCCO[C@H]1CCOC[C@H](NC(=O)c2nccc(OC)c2OCOC(C)=O)C(=O)O[C@@H](C)[C@@H]1OC(=O)c1ccccc1 [Compound 4] | < 80% | > 80% | > 80%
4 | CCCCO[C@H]1CCOC[C@H](NC(=O)c2nccc(OC)c2OCOC(C)=O)C(=O)O[C@@H](C)[C@@H]1OC(=O)C1CC1 [Compound 5] |  | < 80% | < 80%
5 | COc1ccnc(C(=O)N[C@H]2COCC[C@@H](OCC(C)C)[C@@H](OCC(C)C)[C@H](C)OC2=O)c1OCOC(C)=O [Compound 6] |  | < 80% | > 80%
6 | CCCCCO[C@H]1[C@H](C)OC(=O)[C@@H](NC(=O)c2nccc(OC)c2OCOC(C)=O)CCCC[C@@H]1Oc1ccccc1 [Compound 17] | < 80% | > 80% | 
7 | CCCO[C@H]1[C@H](C)OC(=O)[C@@H](NC(=O)c2nccc(OC)c2OCOC(C)=O)CCCC[C@@H]1Oc1ccccc1 [Compound 18] | < 80% | > 80% | 
8 | COc1ccnc(C(=O)N[C@H]2CCCC[C@H](Oc3ccccc3)[C@@H](Oc3ccccc3)[C@H](C)OC2=O)c1OCOC(C)=O [Compound 19] | < 80% | > 80% | 
9 | COc1ccnc(C(=O)N[C@H]2COCC[C@H](Cc3ccccc3)[C@@H](OCC(C)C)[C@H](C)OC2=O)c1OCOC(C)=O [Compound 20] | < 80% | > 80% | > 80%
10 | COc1ccnc(C(=O)N[C@H]2COCC[C@H](Cc3ccccc3)[C@@H](OCC(C)C)[C@H](C)OC2=O)c1OC(C)=O [Compound 21] | < 80% | > 80% | > 80%
11 | COc1ccnc(C(=O)N[C@H]2CCOC[C@H](Oc3ccccc3)[C@@H](Oc3ccccc3)[C@H](C)OC2=O)c1OCOC(C)=O [Compound 37] |  |  | > 80%
